Reference: US20150239835A1, “COMPOSITION, SYNTHESIS, AND USE OF A NEW CLASS OF ISONITRILES” (DUQUESNE UNIVERSITY OF THE HOLY GHOST, priority 2014, published 2015)

Row | melting point | SMILES
1 | 47 to 48 °C | [C-]#[N+]CSc1c(OC)cccc1OC [Example 16, (2,6-dimethoxyphenyl)(isocyanomethyl)sulfane]
2 | 54 to 55 °C | [C-]#[N+]CSc1c(OC)cccc1C(F)(F)F [Example 17, 2-((Isocyanomethyl)sulfanyl)-1-methoxy-3-(trifluoromethyl)benzene]
